Results reported in a melting point compilation (Tetko et al.; mined from patent text by program, amines drawn as free bases though some values may be those of a salt).

| melting point [°C] | SMILES |
| --- | --- |
| 102 to 104 | CCCCCCCCCCCCc1ccc(S(=O)(=O)Nc2nnc(CCCCCN(C)c3ccc([N+](=O)[O-])c4nonc34)s2)cc1 |
| 129 to 130 | COCCOc1ccc(C(=O)C(=O)O)cc1 |
| 239 to 243 | COc1cccc2c1C(=O)c1ccccc1C2(CC(=O)O)CC(=O)O |
| 174 to 175 | CCOC(=O)C(=O)CC(=O)c1cn(Cc2cccc(F)c2)c2ccccc2c1=O |
| 244 to 246 | COc1ccc(C)cc1NC(=O)Nc1ccc(N2CCN(C(=O)Nc3ccc(N)cc3C(F)(F)F)CC2)cc1 |
| 147 to 148 | COC(=O)c1cc(-c2cccc(C(F)(F)F)c2)c(=O)n2ccccc12 |
| 166 to 167 | O=c1ccn(-c2cccc(C(F)(F)F)c2)nc1-c1ccnn1-c1ccc(Cl)cc1 |
| 272 to 275 | NC(=O)CN1C(=O)[C@@H](NC(=O)c2ccc(Cl)cc2)[C@H](c2ccccc2)Sc2ccccc21 (relative stereo) |
| 150 | COc1ccc(-c2ccc(S(=O)(=O)NCc3ccccn3)nc2)cc1 |
| 125 to 127 | CCOC(OCC)c1cc(NC(c2ccccc2)(c2ccccc2)c2ccccc2)c(F)cn1 |
| 105 to 107 | CC(C)OCCOc1c(-c2ccc(S(C)(=O)=O)cc2)cnn(-c2ccc(F)c(F)c2)c1=O |
| 120 to 127 | Cc1ccc(C(=O)Oc2cc(O)ccn2)cc1 |
| 81 to 84 | Cc1cc(Oc2ccc(F)cc2[N+](=O)[O-])n[nH]1 |
| 222 to 226 | O=C1C(O)=C(c2ccccc2)CN1Cc1ccco1 |
| 83 to 86 | COc1cc(C=CC=O)ccc1OC(C)=O |
| 128 to 130 | O=C(O)CC[C@@H](Cc1ccc(OCc2ccccc2)cc1)NC(=O)CCCCCCc1ccccc1 |
| 66 to 68 | OCc1ccc(OCc2ccccc2)cn1 |
| 64 | CC(C)(C)OC1OC(=O)CC(C)(C)C1OS(C)(=O)=O (stereo unspecified) |
| 135 to 136 | COc1ccc2ncc3c(c2c1)[C@@H](O)C(OC)(OC)C[C@@H]3C |
| 70 to 72 | Nc1ccc(Cl)cc1S |
| 192 to 194 | O=C(CN1CCCCC1)Nc1ccc2cc3ccc(NC(=O)CN4CCCCC4)cc3nc2c1 |
| 117 to 118 | CC(=O)c1ccc(Oc2ccc(-c3scc(-c4ccccc4Cl)c3CC(=O)N=C(N)N)cc2)cc1 |
| 145 to 146 | Fc1ccc(C2=CC(=C(C(F)(F)F)C(F)(F)F)N=C2c2ccc(F)cc2)cc1 |

| melting point [°C] | SMILES |
| --- | --- |
| > 300 | CCOC(=O)Cc1c(C)nc(Nc2nc3cc(C)c(C)cc3[nH]2)nc1O |
| 104 | CCCC(=CC(=O)Nc1ccccc1)OC |
| 153 to 154 | O=C(NCCCCCCCNC(=O)c1ccc(OC2CCCC2)cc1)c1ccc(OC2CCCC2)cc1 |
| 48 to 53 | CC(C)CN(C(=O)N(CCCl)N=O)C1O[C@H](CO)[C@H](O)[C@H](O)[C@H]1O (stereo partly specified) |
| 251 to 255 | CN1CCN(c2ncc3c(=O)c(C(=O)O)cn(Cc4ccccc4)c3n2)CC1 |
| 133 to 134 | Cc1c(NC(=O)c2ccc(OC[C@@H]3CCCO3)cc2F)ccc2cc(CNCC(C)C)cnc12 |
| 209 to 211 | Cc1ccc(C(=O)O)c(-c2ccc(Cl)c(C(=O)NCC34CC5CC(CC(C5)C3)C4)c2)n1 |
| 149 to 150 | Nc1ncnc2c1c(Cl)cn2COCCO |
| 196 to 198 | COc1ccc(N2CCN(CC[C@H]3CC[C@H](NC(=O)N(C)C)CC3)CC2)c(Cl)c1Cl |
| 121 to 126 | O=C(Nc1ccccc1O)C(F)(F)C(O)(Cn1cncn1)c1ccc(F)cc1F (stereo unspecified) |
| 156 to 158 | COc1ccc2c(=O)c(-c3ccccc3)coc2c1 |
| 251 to 255 | COc1ccc(CC2SC(=O)NC2=O)c2c1N(CC(=O)O)C(=O)CC2 (stereo unspecified) |
| 180 | CCN(CC)CC(C)N1c2ccccc2Sc2ccc(C(N)=S)cc21 (stereo unspecified) |
| 185 to 186 | COc1ccc(C2=NN(C3CCN(S(=O)(=O)c4ccc(Cl)cc4)CC3)C(=O)CC2)cc1OC |
| 76 to 78 | CN(C)CCOc1cccc(C=CC(=O)N2CCc3c([nH]c4ccccc34)C2c2ccc3c(c2)OCO3)c1 (stereo unspecified) |
| 228 to 230 | COC(=O)C(C)(C)c1ccc(C(=O)Nc2cn3cc(C)ccc3n2)cc1 |
| 142 | NC(=O)N[C@@H]1CN2C(=O)N(c3cc(Cl)nc(Cl)c3)C(=O)[C@@]2(Cc2ccc(OC(F)(F)F)cc2)C1 |
| 148 to 151 | Cc1cc(F)ccc1-c1nc(N[C@H]2CC[C@H](O)CC2)nc2c1ccc(=O)n2-c1ccccc1F |
| 81 to 82 | CCOC(=O)CC[C@H](NC(=O)c1csc(CCCc2cc3c(=O)[nH]c(N)nc3[nH]2)c1)C(=O)OCC |
| 75 | CCOC(=O)CC(c1ccccc1)(c1ccccc1)c1ncc[nH]1 |
| 210 to 211 | O=C(Cc1cnoc1-c1ccccc1)Nc1nc(-c2ccc(Cl)cc2)cs1 |
| 59 to 61 | CC(=O)N(C#N)CCCCCCN(C#N)C(C)=O |
| 86 | Cc1ccccc1-c1cc(Cl)cc2c1NC(CN)CO2 (stereo unspecified) |

| melting point [°C] | SMILES |
| --- | --- |
| 236 to 237 | COC(=O)c1sc2c(c1N)c1ccccc1c(=O)n2-c1ccccc1C |
| 132 to 134 | CN1CCC(c2cccc3ccc(C(=O)NCCCc4ccc(Cl)cc4)cc23)CC1 |
| 105 to 106 | CN(CCc1ccc(O)c(O)c1)C(=O)OCc1ccccc1 |
| 201 to 204 | CCCCc1nc2c(c(C)c(C)n3nnnc23)n1CC(C)(C)NC(=O)c1ccccc1 |
| 172 | CCC1OCc2c1cnc(C)c2O (stereo unspecified) |
| 132 | O=S(=O)(CC(O)(CBr)c1cccc(Br)c1)c1ccccc1 (stereo unspecified) |
| 149 to 150 | Cc1ccc(-c2cc[nH]c2C=O)cc1 |
| 115 | COc1cc(C(=O)c2ccc(C(F)(F)F)cc2)cc([N+](=O)[O-])c1OC |
| 151 to 152 | CC(C)(C#N)c1cc(C=Cc2ccc(OS(N)(=O)=O)cc2)cc(Cn2cncn2)c1 |
| 156 to 158 | NCCNC(=O)Nc1ccc2[nH]ccc2c1 |
| 201 to 202 | CC1CC2C3CCC4=CC(=O)C=CC4(C)C3C(=O)CC2(C)C1C(=O)COC(=O)C(C)(C)C (stereo unspecified) |
| 135 to 137 | S=C(Nc1cccc(Br)c1)N1CCCSC1c1ccccc1 (stereo unspecified) |
| 61 to 63 | CC1(C)CC(=O)C1(Br)CC(Br)(Br)Br (stereo unspecified) |
| 237 to 239 | O=C(O)Cc1ccc2c(c1)NC(=O)CO2 |
| 185 to 187 | Cc1c(SCCCSc2nnnn2CC(=O)O)ccnc1CSc1ccncc1 |
| 90 to 92 | CC[C@H](C)[C@H](NC(=O)O[C@@H](CC(C)C)C(=O)OCc1ccccc1)C(=O)NC(C)C |
| 124 to 126 | C=CC(C)(C)C(=O)C(Oc1ccc(Cl)cc1)n1cnnc1 (stereo unspecified) |
| 112 to 113 | COC(=O)Cc1ccc(O)c(NC(=O)C(C)(C)C)c1 |
| 116 to 120 | CCOC(=O)C1CNC(=O)CC1c1ccc(F)cc1 (stereo unspecified) |
| 150 to 153 | O=c1[nH]nc(CCCN2CCN(c3cccc(Cl)c3)CC2)n1CCOc1ccccc1 |
| 119 to 121 | FC(F)(F)c1cc(Cl)c(Oc2cc(C3CC3)[nH]n2)c(Cl)c1 |
| 120 to 126 | C/C(=C(\C#N)C(=S)/N=C/N(C)C)N1CCCN(c2ccc(C#N)cc2)CC1 |
| 67 to 69 | CC1(C)C=C(C(=O)O)CC1 |

| SMILES | melting point [°C] |
| --- | --- |
| Cc1nc2ccccc2c(=O)n1-c1nnn[nH]1 | 225 to 226 |
| CCOc1c(SC(F)(F)F)c(C#N)nn1-c1c(Cl)cc(C(F)(F)F)cc1Cl | 106 |
